According to patent publication US5017723A, “Substituted ethylamines, their preparation process, their use as medicine and their synthesising agents” (Jouveinal S.A., priority 1990, dated 1991):
Read-outs that look alike come from different tables or passages of the source.

Key:
[1] = target: T1, opiated delta receptor (Cavia porcellus, UniProt A0A286XTF2); assay: Displacement of specific radioactive ligands, opiated delta receptor; format: binding, guinea pig; conditions: inhibition of 50% of radioligand bonds; read-out: CI50 affinity delta rec.
T1 construct: membranous receptors of a guinea pig; from tissue
Protocol: (§1) The analysis is carried out in accordance with the technique described by F. Roman et al. in J. Pharm. Pharmcol. 1987, 39, p. 404-407 which consists of analysing the displacement of specific radioactive ligands of the opiated mu, delta and kappa sub receptors by the action of the test products on the membranous receptors of a guinea pig.

[2] = target: T2, opiated kappa receptor (Cavia porcellus, UniProt P41144); assay: Displacement of specific radioactive ligands, opiated kappa receptor; format: binding, guinea pig; conditions: inhibition of 50% of radioligand bonds; read-out: CI50 affinity kappa rec.
T2 construct: membranous receptors of a guinea pig; from tissue
Protocol: as §1

[3] = test system: opiated mu receptor; format: binding, guinea pig; conditions: opiated receptors, compared with morphine
Protocol: as §1

[4] = target: opiated mu receptor (Cavia porcellus, UniProt A0ACM8Q262); format: binding, guinea pig; conditions: inhibition of 50% of radioligand bonds; read-out: CI50 affinity mu rec.
Protocol: as §1

[5] = test system: bladder of the rat; assay: Transvesical cystomanometry on wide awake rat (urological activity); format: in vivo, female rat; conditions: for change in vivo at 1 mg/kg: Rattus norvegicus, iv, 1,0 mg/kg i.v.; for activity on the urinary tract compared to the reference compounds (in words): compared to Dicyclomine and Baclofen
Protocol: Studies by a similar method of operation, the compounds of the invention (I.A) which show a mu and kappa affinity also have an activity on certain functional parameters of the bladder of the rat which justifies their interest in the treatment of dysfunctions in the urinary tract.
The study carried out consists of transvesical cystomanometry on a wide awake rat. The following was measured during the storage and emission phases of urine under continuous intervesical perfusion of sterile physiological serum:
the "threshold pressure", which is the intervesical pressure immediately preceding the contraction phase of the detrusor
the volume of each urinary emission.
The technique used in the female rat consisted of preparing the animals 48 hours before the actual experiment by effecting the implantation of two catheters in the apex of the bladder and one catheter in the left-hand jugular vein under anaesthetic, with the external end of these catheters being protected and held by a sticking plaster corset.
The animals were placed in suitable cages at the time of the test, which were equipped so as to collect and measure the urine. For each animal one vesical catheter was connected to a pressure sensor, the other to a perfusor which supplied 0.2 ml/min. of sterile physiological serum continuously.
The intravesical pressure was measured continuously during the perfusion and it was possible to observe:
a filling phase of the bladder during which the pressure increased progressively,
a sudden rising phase of this pressure during the contraction of the detrusor: the "threshold" pressure which is the pressure observed just before the pressure of the contraction phase. This threshold pressure was raised in the same way as the urinary volume at each urination.
The study consisted of observing the changes in these parameters by the action of the products (IA) which were administered in solution by intravenous route by means of the catheter placed in the left jugular vein.
Dicyclomine and Baclofen which have been considered for the treatment of hyperactive bladders (Drugs of Today, Vol. 24, no. 5, 1988, p. 337-348) were also used in this test in the form of comparison products.

[6] = test system: convulsion induced by picrotoxine in mice; assay: Protection against picrotoxine-induced convulsion (suppression of the tonic extension phase); format: in vivo, male Swiss mice; conditions: Mus musculus
From the text: The psychotropic properties of the compounds have been determined by the protection of the induced convulsion by picrotoxine for mice, which is achieved by the method derived from that of Krall et al., "Epilepsia", 1978, 19, p. 409-428.
The administration of picrotoxine caused a convulsive crisis in the animal characterised by a myoclonic extension syndrome followed by the extension of the limbs causing the animal to die. Certain substances, particularly those active on the complex GABA/benzodiazepines/Cl-ionophore makes it possible to protect the animals from this convulsive crisis.
In practice the study is carried out on batches of 10 male "Swiss" mice weighing approximately 20 g, which are administered with the product to be studied in aqueous solution either by intraperitoneal route (i.p.) at the rate of 50 mg/kg and in a volume of 0.2 ml of solution per animal, or by oral route (p.o) in a volume of 2.0 ml of solution per animal.
An injection of a solution of picrotoxine at the rate of 24 mg/kg in a volume of 0.2 ml per animal is then administered by interperitoneal route, either 30 minutes after administering the product by interperitoneal route or 60 minutes after administering the product by oral route. The dose of the product injected causing a clonic crisis, which results in untreated animals dying. The suppression of the extension tonic phase in the animals treated under the conditions of the test is observed. The results are expressed:
either in percentages of protected animals of this phase to the reaction of 50 mg/kg of the compound of the study administered by i.p. route or 100 mg/kg by p.o route,
or in DE50 for each of these routes, which is the efficient dosage of the test compound expressed in mg/kg protecting 50% of the animals of this extension phase. The significant value of the results being generally indicated in the following manner:
* Significant result at p<0.05
** Significant result at p<0.01
*** Significant highly significant at p<0.001.

[7] = read-out: % variation pressure threshold

T1 sequence (A0A286XTF2 1-366): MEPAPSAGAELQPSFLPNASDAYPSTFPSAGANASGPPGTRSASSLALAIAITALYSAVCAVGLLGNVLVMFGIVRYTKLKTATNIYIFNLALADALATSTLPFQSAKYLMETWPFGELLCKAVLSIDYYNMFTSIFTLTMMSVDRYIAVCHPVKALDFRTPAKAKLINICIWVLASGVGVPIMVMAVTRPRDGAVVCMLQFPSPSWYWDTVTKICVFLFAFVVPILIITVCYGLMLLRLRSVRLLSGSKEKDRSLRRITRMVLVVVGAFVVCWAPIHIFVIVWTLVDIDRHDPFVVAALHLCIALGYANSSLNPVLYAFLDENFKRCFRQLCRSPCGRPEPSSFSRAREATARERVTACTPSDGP
opiated mu receptor (Cavia porcellus, UniProt A0ACM8Q262), sequence (A0ACM8Q262 1-400): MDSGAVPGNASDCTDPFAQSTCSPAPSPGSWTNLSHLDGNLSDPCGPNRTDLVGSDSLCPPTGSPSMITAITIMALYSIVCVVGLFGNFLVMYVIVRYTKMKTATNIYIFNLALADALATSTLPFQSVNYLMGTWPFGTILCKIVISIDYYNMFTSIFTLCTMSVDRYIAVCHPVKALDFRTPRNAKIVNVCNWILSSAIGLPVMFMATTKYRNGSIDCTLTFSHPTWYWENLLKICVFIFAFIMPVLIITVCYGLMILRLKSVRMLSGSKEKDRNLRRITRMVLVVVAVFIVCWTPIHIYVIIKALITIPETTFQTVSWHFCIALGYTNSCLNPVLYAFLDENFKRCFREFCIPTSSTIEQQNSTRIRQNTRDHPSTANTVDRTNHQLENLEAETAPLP
T2 sequence (P41144 whole entry): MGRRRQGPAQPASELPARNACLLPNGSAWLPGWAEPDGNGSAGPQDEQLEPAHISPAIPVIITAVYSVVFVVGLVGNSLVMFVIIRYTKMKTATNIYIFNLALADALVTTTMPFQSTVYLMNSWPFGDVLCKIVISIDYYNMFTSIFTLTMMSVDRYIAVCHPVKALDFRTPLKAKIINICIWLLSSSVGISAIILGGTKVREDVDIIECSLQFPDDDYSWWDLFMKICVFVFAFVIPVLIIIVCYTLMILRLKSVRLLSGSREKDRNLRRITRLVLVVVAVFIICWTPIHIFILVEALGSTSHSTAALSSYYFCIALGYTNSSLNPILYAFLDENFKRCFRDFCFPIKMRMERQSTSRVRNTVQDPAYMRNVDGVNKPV

CCC(CC=Cc1ccc(Cl)c(Cl)c1)(c1ccc(Cl)cc1)N(C)C (centres unmarked) [Example 43, a-(3',4' dichloro) cinnamyl-N,N-dimethyl-a-ethyl-p.chlorobenzylamine]
IC50 [1]: 434 nM | IC50 [2]: 197 nM | affinity with the receptors compared with morphine (in words) [3]: same order of intensity as the reference products | IC50 [4]: 16 nM | change in vivo at 1 mg/kg [5, 7]: 109% | change in vivo at 1 mg/kg ([5]; read-out: % variation volume): 91% | activity on the urinary tract compared to the reference compounds (in words) [5]: important activity

CCC(CC=Cc1ccc(Cl)c(Cl)c1)(c1ccc(OC)cc1)N(C)C (centres unmarked) [Example 46, a-(3',4'-dichloro)cinnamyl-N,N-dimethyl-a-ethyl-p.metoxybenzylamine]
IC50 [1]: 260 nM | IC50 [2]: 235 nM | affinity with the receptors compared with morphine (in words) [3]: same order of intensity as the reference products | IC50 [4]: 12 nM | ED50 ([6]; ip, read-out: i.p.: DE50): 29.8 mg/kg | ED50 ([6]; po, read-out: p.o.: DE50): 35.4 mg/kg | change in vivo at 1 mg/kg [5, 7]: 111% | change in vivo at 1 mg/kg ([5]; read-out: % variation volume): 44% | activity on the urinary tract compared to the reference compounds (in words) [5]: important activity

CCC(CC=Cc1ccc(Cl)c(Cl)c1)(c1ccc(C)cc1)N(C)C (centres unmarked) [Example 44, a-(3',4'-dichloro) cinnamyl-N,N-dimethyl-a-ethyl-p.methylbenzylamine]
IC50 [1]: 223 nM | IC50 [2]: 110 nM | affinity with the receptors compared with morphine (in words) [3]: same order of intensity as the reference products | IC50 [4]: 4 nM | ED50 ([6]; ip, read-out: i.p.: DE50): 21.4 mg/kg | ED50 ([6]; po, read-out: p.o.: DE50): 23.9 mg/kg | activity on the urinary tract compared to the reference compounds (in words) [5]: important activity

CCC(CC=Cc1ccccc1)(c1ccc(Cl)cc1)N(C)C (centres unmarked) [Example 31, a-cinnamyl-N,N-dimethyl-a-ethyl-p.chlorobenzylamine]
IC50 [1]: 1340 nM | IC50 [2]: 210 nM | IC50 [4]: 80 nM | responders at 50 mg/kg ([6]; ip, 0.5 h, read-out: i.p.: % prot. (percentage of protected animals), 50 mg/kg i.p., picrotoxine 24 mg/kg i.p. 30 min later, * p<0.05, ** p<0.01, *** p<0.001): 100% | responders at 100 mg/kg ([6]; po, 1 h, read-out: p.o.: % prot. (percentage of protected animals), 100 mg/kg p.o., picrotoxine 24 mg/kg i.p. 60 min later, * p<0.05, ** p<0.01, *** p<0.001): 50% | activity on the urinary tract compared to the reference compounds (in words) [5]: important activity
